# From US9957271B2, “Substituted bicyclic aza-heterocycles and analogues as sirtuin modulators” (GlaxoSmithKline, LLC, priority 2012, dated 2018)
# Experiments:
# SIRT1 [1] = target: T1, SIRT1 (Homo sapiens, UniProt Q96EB6); assay: TAMRA based mass spectrometry assay of SIRT1 activity; format: biochemical; conditions: for Emax: read-out: TAMRA % Fold Act
# T1 sequence (Q96EB6 1-747): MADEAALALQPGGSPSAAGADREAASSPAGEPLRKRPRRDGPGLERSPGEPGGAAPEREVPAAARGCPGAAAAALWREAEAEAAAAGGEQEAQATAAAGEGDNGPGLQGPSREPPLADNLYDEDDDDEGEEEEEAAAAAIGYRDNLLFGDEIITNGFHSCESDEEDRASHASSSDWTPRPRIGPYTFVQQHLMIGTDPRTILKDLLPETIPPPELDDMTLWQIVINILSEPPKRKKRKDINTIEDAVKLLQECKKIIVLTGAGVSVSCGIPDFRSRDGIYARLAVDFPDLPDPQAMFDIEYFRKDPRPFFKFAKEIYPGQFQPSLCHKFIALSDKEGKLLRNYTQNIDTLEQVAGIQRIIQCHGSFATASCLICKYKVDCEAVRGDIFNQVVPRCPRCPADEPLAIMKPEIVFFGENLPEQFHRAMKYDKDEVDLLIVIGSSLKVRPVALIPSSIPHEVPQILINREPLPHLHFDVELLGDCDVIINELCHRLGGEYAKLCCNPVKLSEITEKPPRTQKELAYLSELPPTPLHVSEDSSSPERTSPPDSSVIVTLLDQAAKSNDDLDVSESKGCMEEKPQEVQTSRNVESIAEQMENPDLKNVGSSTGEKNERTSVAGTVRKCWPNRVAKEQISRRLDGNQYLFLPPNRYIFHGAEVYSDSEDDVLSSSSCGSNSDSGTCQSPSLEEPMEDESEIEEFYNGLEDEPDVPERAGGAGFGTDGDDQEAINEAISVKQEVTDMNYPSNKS
# In short: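 Deacetylation of a biotinylated, TAMRA-tagged p53-based peptide (0.5 μM) by 10 nM His-tagged SIRT1 with 120 μM βNAD+, 25 °C for 25 min, pH 8 Tris-acetate buffer, across a compound concentration range. Quenched by formic acid and read by mass spec as product peptide or OAADPR; activity relative to DMSO reactions, nicotinamide defining maximal inhibition.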
# SIRT1 [2] = target: T1, SIRT1; assay: Trp mass spectrometry assay of SIRT1 activity; format: biochemical; conditions: for Emax: read-out: Trp % Fold Act
# In short: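 Activation readout: EC1.5 (concentration raising activity 50% over control) and percent maximum activation, from mass-spec quantitation of OAADPR or deacetylated Trp peptide. Reaction: 0.5 μM acetylated Trp peptide, 120 μM βNAD+, 10 nM bacterially expressed N-His SIRT1, pH 7.5 HEPES buffer with […], 25 min at 25° C.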
# [3] = TAMRA assay, concentration giving 150% activation of SIRT1
# [4] = TAMRA assay, percent maximum fold activation
# [5] = Trp assay, concentration giving 150% activation of SIRT1
# [6] = Trp assay, percent maximum fold activation
# [7] = concentration of test compound giving 150% activation of SIRT1, TAMRA peptide substrate
# [8] = percent maximum fold activation of SIRT1, TAMRA peptide substrate
# [9] = concentration of test compound giving 150% activation of SIRT1, Trp peptide substrate
# [10] = percent maximum fold activation of SIRT1, Trp peptide substrate
# [11] = TAMRA peptide substrate, concentration giving 150% activation of SIRT1
# [12] = TAMRA peptide substrate, percent maximum fold activation
# [13] = Trp peptide substrate, concentration giving 150% activation of SIRT1
# [14] = Trp peptide substrate, percent maximum fold activation
TAMRA EC1.5 (μM) (SIRT1 [1]; [3]),Emax (SIRT1 [1]; [4]) [%],Trp EC1.5 (μM) (SIRT1 [2]; [5]),Emax (SIRT1 [2]; [6]) [%],TAMRA EC1.5 (μM) (SIRT1 [1]; [7]),Emax (SIRT1 [1]; [8]) [%],Trp EC1.5 (μM) (SIRT1 [2]; [9]),Emax (SIRT1 [2]; [10]) [%],SMILES,other results
,,,,A (EC1.5<1 μM),≥ 350,A (EC1.5<1 μM),≥ 350,Cc1csc(NC(=O)c2cnc3ccc(-c4ccccc4C(F)(F)F)nn23)n1 [Compound 152],
A (EC1.5<1 μM),< 350,A (EC1.5<1 μM),< 350,,,,,Cc1cccc(-c2ccc3nc(C)c(C(=O)Nc4cccnn4)n3n2)c1 [Compound 766],
B (EC1.5 1-25 μM),< 350,B (EC1.5 1-25 μM),≥ 350,,,,,Cc1nc2ccc(-c3ccccc3C(F)(F)F)nn2c1C(=O)Nc1ccnn1C(C)C [Compound 680],
,,,,B (EC1.5 1-25 μM),< 350,B (EC1.5 1-25 μM),< 350,O=C(Nc1ccccn1)c1cnc2ccc(-c3cccc(OC(F)(F)F)c3)nn12 [Compound 8],
A (EC1.5<1 μM),≥ 350,B (EC1.5 1-25 μM),< 350,,,,,CC(C)c1csc(C(=O)Nc2cnn3ccc(-c4ccccc4C(F)(F)F)nc23)n1 [Compound 808],
A (EC1.5<1 μM),≥ 350,A (EC1.5<1 μM),≥ 350,,,,,Cc1ccc(NC(=O)c2c(C)nn3ccc(-c4ccccc4C(F)(F)F)nc23)c(C)n1 [Compound 698],
B (EC1.5 1-25 μM),≥ 350,B (EC1.5 1-25 μM),< 350,,,,,"O=C(Nc1ncccn1)c1cnn2ccc(-c3ccccc3C(F)(F)F)nc12 [Compound 266, N-(pyrimidin-2-yl)-5-(2-(trifluoromethyl)phenyl)pyrazolo[1,5-a]pyrimidine-3-carboxamide]",
A (EC1.5<1 μM),≥ 350,A (EC1.5<1 μM),≥ 350,,,,,COc1ccnc(NC(=O)c2c(C)nc3ccc(-c4ccccc4C(F)(F)F)nn23)c1 [Compound 671],
A (EC1.5<1 μM),≥ 350,B (EC1.5 1-25 μM),≥ 350,,,,,O=C(Nc1ccncn1)c1cnc2ccc(-c3ccccc3OC(F)(F)F)nn12 [Compound 358],
,,,,B (EC1.5 1-25 μM),≥ 350,C (EC1.5>25 μM),< 350,O=C(Nc1ccncn1)c1cnc2ccc(-c3ccccc3C(F)(F)F)nn12 [Compound 80],
,,,,C (EC1.5>25 μM),< 350,A (EC1.5<1 μM),< 350,O=C(Nc1cccnc1)c1cnc2ccc(-c3cccc(Cl)c3F)nn12 [Compound 143],
,,,,B (EC1.5 1-25 μM),< 350,B (EC1.5 1-25 μM),< 350,Cc1cnc(NC(=O)c2cnc3ccc(-c4cccc(C(F)(F)F)c4)nn23)s1 [Compound 17],

# The next lines start with the molecule.
SMILES,TAMRA EC1.5 (μM) (SIRT1 [1]; [3]),Emax (SIRT1 [1]; [4]) [%],Trp EC1.5 (μM) (SIRT1 [2]; [5]),Emax (SIRT1 [2]; [6]) [%],TAMRA EC1.5 (μM) (SIRT1 [1]; [7]),Emax (SIRT1 [1]; [8]) [%],Trp EC1.5 (μM) (SIRT1 [2]; [9]),Emax (SIRT1 [2]; [10]) [%],other results
O=C(Nc1cnn2ccc(-c3ccccc3C(F)(F)F)nc12)c1ccncc1 [Compound 251],C (EC1.5>25 μM),< 350,C (EC1.5>25 μM),< 350,,,,,
Cc1ncccc1NC(=O)c1cnc2ccc(-c3ccccc3C(F)(F)F)nn12 [Compound 113],,,,,B (EC1.5 1-25 μM),< 350,B (EC1.5 1-25 μM),< 350,
Cc1ncccc1-c1ccc2ncc(C(=O)Nc3ccnc(N4CCCC4)c3)n2n1 [Compound 59],,,,,B (EC1.5 1-25 μM),< 350,C (EC1.5>25 μM),< 350,
Cc1nccc(C(=O)Nc2cnn3ccc(-c4ccccc4C(F)(F)F)nc23)n1 [Compound 794],A (EC1.5<1 μM),≥ 350,B (EC1.5 1-25 μM),< 350,,,,,
O=C(Nc1ncn2ccc(-c3ccccc3C(F)(F)F)nc12)c1ccncn1 [Compound 484],,,,,,,,,TAMRA EC1.5 (SIRT1 [1]; [11]): B (EC1.5 1-25 μM); Emax (SIRT1 [1]; [12]): < 350%; Trp EC1.5 (SIRT1 [2]; [13]): C (EC1.5>25 μM); Emax (SIRT1 [2]; [14]): < 350%
Cc1ccncc1NC(=O)c1cnn2ccc(-c3ccccc3OC(F)(F)F)nc12 [Compound 610],B (EC1.5 1-25 μM),< 350,A (EC1.5<1 μM),≥ 350,,,,,
Cc1cc(NC(=O)c2cnn3ccc(-c4ccccc4OC(F)(F)F)nc23)nc(C)n1 [Compound 659],A (EC1.5<1 μM),≥ 350,B (EC1.5 1-25 μM),< 350,,,,,
"Cc1nc2c(C)cc(-c3ccccc3C(F)(F)F)nn2c1C(=O)Nc1cccnn1 [Compound 428, 2,8-dimethyl-N-(pyridazin-3-yl)-6-(2-(trifluoromethyl)phenyl)imidazo[1,2-b]pyridazine-3-carboxamide]",,,,,,,,,TAMRA EC1.5 (SIRT1 [1]; [11]): A (EC1.5<1 μM); Emax (SIRT1 [1]; [12]): ≥ 350%; Trp EC1.5 (SIRT1 [2]; [13]): A (EC1.5<1 μM); Emax (SIRT1 [2]; [14]): ≥ 350%
Cc1ccnnc1NC(=O)c1cnc2c(C)cc(-c3ccccc3C(F)(F)F)nn12 [Compound 681],C (EC1.5>25 μM),< 350,B (EC1.5 1-25 μM),≥ 350,,,,,
Cc1nc2ccc(-c3ccccc3C(F)(F)F)nn2c1C(=O)Nc1cccc(N2CCC2)n1 [Compound 69],,,,,A (EC1.5<1 μM),≥ 350,B (EC1.5 1-25 μM),≥ 350,
Cc1cc(C)nc(C(=O)Nc2cnc3ccc(-c4ccccc4C(F)(F)F)nn23)c1 [Compound 436],,,,,,,,,TAMRA EC1.5 (SIRT1 [1]; [11]): A (EC1.5<1 μM); Emax (SIRT1 [1]; [12]): ≥ 350%; Trp EC1.5 (SIRT1 [2]; [13]): C (EC1.5>25 μM); Emax (SIRT1 [2]; [14]): < 350%
Cc1nc2ccc(-c3ccccc3F)nn2c1C(=O)Nc1cccnn1 [Compound 706],,< 350,,< 350,,,,,
O=C(Nc1cccc(N2CCOCC2)n1)c1cnc2ccc(-c3c(F)cccc3Cl)nn12 [Compound 164],,,,,A (EC1.5<1 μM),≥ 350,B (EC1.5 1-25 μM),< 350,
O=C(Nc1ccncc1)c1cnc2ccc(-c3cccc(Cl)c3F)nn12 [Compound 141],,,,,C (EC1.5>25 μM),< 350,C (EC1.5>25 μM),< 350,
O=C(Nc1cnn2ccc(-c3ccccc3OC(F)(F)F)nc12)c1nc(C(F)(F)F)cs1 [Compound 770],B (EC1.5 1-25 μM),≥ 350,C (EC1.5>25 μM),< 350,,,,,
Cc1c(-c2ccccc2Cl)nn2c(NC(=O)c3cccc(N4CCCC4)n3)cnc2c1C [Compound 386],A (EC1.5<1 μM),≥ 350,B (EC1.5 1-25 μM),< 350,,,,,
Cn1cc(-c2ccc3ncc(C(=O)Nc4cccc(N5CCOCC5)n4)n3n2)cn1 [Compound 56],,,,,B (EC1.5 1-25 μM),< 350,B (EC1.5 1-25 μM),< 350,
Cc1nc2ccc(-c3ccccc3Cl)nn2c1NC(=O)c1ccccn1 [Compound 346],B (EC1.5 1-25 μM),< 350,C (EC1.5>25 μM),< 350,,,,,
Cc1nc2ccc(-c3ccccc3C(F)(F)F)nn2c1C(=O)Nc1ccnn1C(C)(C)C [Compound 672],B (EC1.5 1-25 μM),< 350,B (EC1.5 1-25 μM),< 350,,,,,
COc1cccc(NC(=O)c2cnn3ccc(-c4ccccc4C(F)(F)F)nc23)n1 [Compound 486],,,,,,,,,TAMRA EC1.5 (SIRT1 [1]; [11]): A (EC1.5<1 μM); Emax (SIRT1 [1]; [12]): ≥ 350%; Trp EC1.5 (SIRT1 [2]; [13]): A (EC1.5<1 μM); Emax (SIRT1 [2]; [14]): ≥ 350%
O=C(Nc1cccc(N2CCOCC2)n1)c1cnc2ccc(-c3cccc(OCC(O)CO)c3)nn12 (stereo not shown) [Compound 372],A (EC1.5<1 μM),≥ 350,A (EC1.5<1 μM),< 350,,,,,
